Patent US11643385B2, “Polymorphic forms of RAD1901-2HCl” (RADIUS PHARMACEUTICALS, INC., priority 2018, dated 2023)
Entries after “also recorded” stand apart in the source; their conditions may differ.

Assays:
[1] = Storage at elevated temperature/humidity, solid form checked by XRPD; format: physicochemical; conditions: for XRPD after storage at 25° C./97% RH for 1 week (solid form) / XRPD after storage at 40° C./75% RH for 1 week (solid form): 1 week (7 days); for Form change on exposure to high RH (>90%): e.g. 7 days / prolonged exposure
Description: Samples 1 and 2 were characterized by XRPD at various conditions. XRPD patterns were collected for the samples at ambient condition as the samples were provided; at variable temperature (VT-XRPD); at variable humidity (VH-XRPD); after the samples were exposed to 40° C./75% RH for 1 week and 25° C./97% RH for 1 week, respectively; and after a GVS measurement wherein the samples were exposed to 0-90% RH. Samples 1 and 2 were also characterized by ^1H NMR, TGA, DSC, KF, IC, GVS (exposed to 0-90% RH), PLM, SEM, and HPLC (Table 5). […]

[2] = Gravimetric Vapour Sorption (GVS) with XRPD post-GVS; format: physicochemical; conditions: for GVS total mass change between 0 and 90% RH: 0-90% RH (Table 17); for XRPD post GVS (uptake 0-90% RH): after GVS 0-90% RH; for Form change at high RH (>90%) in GVS experiments: above 90% RH
Description: Sorption isotherms were obtained using a SMS DVS Intrinsic moisture sorption analyzer, controlled by DVS Intrinsic Control software v1.0.1.2 (or v 1.0.1.3). The sample temperature was maintained at 25° C. by the instrument controls. The humidity was controlled by mixing streams of dry and wet nitrogen, with a total flow rate of 200 ml/min. The relative humidity was measured by a calibrated Rotronic probe (dynamic range of 1.0-100% RH), located near the sample. The weight change, (mass relaxation) of the sample as a function of % RH was constantly monitored by the microbalance (accuracy ±0.005 mg).
A sample (e.g., 20 mg) was placed in a tared mesh stainless steel basket under ambient conditions. The sample was loaded and unloaded at 40% RH and 25° C. (typical room conditions). A moisture sorption isotherm was performed as outlined below (2 scans giving 1 complete cycle). Standard isotherms were performed at 25° C. at 10% RH intervals over a 0-90% RH range. Data analysis was carried out using Microsoft Excel using DVS Analysis Suite v6.2 (or 6.1 or 6.0).
In a cycle of 2 scans, the first scan was performed with adsorption of 40-90% RH, followed by a second scan with desorption of 90-0% RH and adsorption of 0-40% RH, with intervals of 10% RH, at 25° C. with stability dm/dt of 0.002% ° C./min. The sorption time was 6 hr time out.
The sample was recovered after completion of the isotherm and re-analyzed by XRPD. Custom moisture sorption methods were also performed at 25° C. at fixed % RH intervals over a 0-95% RH range, with the purpose to fully understand the sorption/desorption behavior of the compound under elevated conditions.
To further explore the humidity behavior of Sample 1 (Form 1) upon exposure to high RH (>90%), custom GVS experiments were designed and carried out. Initially, the sample was treated by holding at 90 and then 95% RH for ˜12 hours to see if hydrate formation could be observed (HighRH method of Steps 1 and 2 of Table 2, FIGS. 6C-6D).
To test the stability of the hydrated state, GVS method HighRH_Desorp_3 was designed with a desorption step and subsequent adsorption (see Table 2 with steps 1-4, FIGS. 6E-6F).
Finally, to ensure complete conversion to the anhydrous and hydrated forms, a GVS experiment was designed to increase both the length of the desorption step at 0% RH, and the adsorption step at 95% RH, respectively (Table 3). Based on the weight stabilization observed in the kinetic plots for Sample 1 in HighRH and HighRH_Desorp_3 methods discussed above (FIGS. 6D and 6F), a holding time of 800 mins at 0% RH and 1600 mins at 95% RH were chosen. A double cycle was also recorded for this experiment to observe whether the sample would return to Form 1 or form a mixed anhydrous/hydrated species (see Table 3, FIGS. 6G-6H).

[3] = Storage at elevated temperature/humidity, solid form checked by XRPD; format: physicochemical
[4] = molecular target: T1, estrogen receptor (ER) (Homo sapiens, UniProt P03372); conditions: cited from earlier work
T1 sequence (P03372 1-595): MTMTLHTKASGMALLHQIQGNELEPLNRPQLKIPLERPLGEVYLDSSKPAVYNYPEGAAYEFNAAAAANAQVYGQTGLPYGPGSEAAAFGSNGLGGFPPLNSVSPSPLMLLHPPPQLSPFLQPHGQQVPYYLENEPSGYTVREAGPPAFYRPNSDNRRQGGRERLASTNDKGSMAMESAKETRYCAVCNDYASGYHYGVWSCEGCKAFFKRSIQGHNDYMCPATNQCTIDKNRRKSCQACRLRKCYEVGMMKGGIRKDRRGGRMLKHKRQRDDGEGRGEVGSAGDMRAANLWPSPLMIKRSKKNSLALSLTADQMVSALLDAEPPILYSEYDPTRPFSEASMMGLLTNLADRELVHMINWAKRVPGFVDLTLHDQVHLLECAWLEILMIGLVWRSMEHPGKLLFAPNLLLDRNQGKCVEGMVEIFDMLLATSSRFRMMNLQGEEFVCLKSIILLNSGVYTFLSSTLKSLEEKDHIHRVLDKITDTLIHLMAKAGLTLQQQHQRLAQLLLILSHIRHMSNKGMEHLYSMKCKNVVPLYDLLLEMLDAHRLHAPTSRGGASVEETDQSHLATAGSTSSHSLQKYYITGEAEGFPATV

[5] = Variable humidity XRPD (VH-XRPD); format: physicochemical
Description: Samples run under non-ambient conditions were prepared by gently packing into a cavity, cut into a silicon wafer to obtain a flat surface and mounted onto a humidity stage with an Ansyco controller and humidity sensor positioned directly next to the sample holder. The data were collected at 298.15 K with water temperature of 35.0° C., in an angular range of 3 to 31° 2θ, with a step size of 0.025° 2θ, a collection time of 2.0 sec/step, and a collection time at each % RH was 41 min 28 sec.
X-Ray Powder Diffraction (XRPD) patterns were collected at variable humidity values from 0 to 95% RH, based upon the humidity behavior of each compound observed during GVS experiments (described herein). For each Variable Humidity X-Ray Powder Diffraction (VH-XRPD) experiment performed, the % RH values selected are provided alongside the relevant experimental result. Full tables of detailing the % RH value at each collection point and the associated delay time at each value are provided in Tables 10-12.
To fully characterize the polymorphic behavior of Samples 1 and 2 at variable humidity, and to collect reference XRPD patterns for the ‘pure’ anhydrous Form 1 and Form 2 material, and ‘pure’ hydrated Form 3 material, Variable Humidity (VH) XRPD experiments were conducted on Samples 1 and 2. Initially, VH-XRPD experiments were conducted using Sample 1, and XRPD diffractograms were collected at selected humidity values, in line with those collected during GVS experiments (see FIGS. 6E-6F). XRPD diffractograms were collected initially at ambient RH, then collected over 24 hours at ˜95% RH and finally collected during desorption steps to 0% RH and over 10 hours at 0% RH (see FIG. 4C).

[6] = Solubility assessment and polymorph screen on Sample 1 (Form 1) of RAD1901-2HCl in 24 solvent systems; format: physicochemical
Description: Solubility assessment was carried out on the Sample 1 of RAD1901-2HCl (majorly Form 1 shown by XRPD) in 24 solvent systems in HPLC vials (sample IDs: A1 to A24). RAD1901-2HCl (25 mg) was treated with increasing volumes of solvent until the material fully dissolved or until a maximum of 60 vol had been used (Table 13).
After each addition of solvent, the system was stirred for 5 to 10 minutes at 25° C., then shaken at 50° C. for 5 to 10 minutes, and observations made. Samples were allowed to stand at room temperature for 5 min before the addition of a new aliquot of solvent. After the assessment was completed, the suspensions obtained were matured (maturation) and the clear solutions were cooled (cooling) and slowly evaporated (evaporation) as described below. All solids recovered from maturation, cooling and evaporation experiments were analyzed by high resolution XRPD.
The suspensions obtained during the solubility assessment were matured by shaken in a maturation chamber between 50° C. and RT (8 hr per cycle) for up to 5 days. Then the mixture was allowed to stand at room temperature for 10 minutes. The resulting solids were filtered and air dried and analyzed by XRPD. The clear solutions obtained during maturation were evaporated in ambient conditions and the resulting residues were analyzed by XRPD.
The clear solutions obtained during the course of the solubility assessment were cooled on a Polar Bear device from 50° C. to 5° C. at 0.1° C./min. Solids obtained upon cooling were recovered from the vials, air dried and analyzed by XRPD. If no solid was obtained, the solutions were evaporated slowly through a needle inserted into the septum cap of the vial until a solid appeared at ambient conditions and the resulting solids were filtered, air dried and analyzed by XRPD.

[7] = Variable temperature XRPD (VT-XRPD); format: physicochemical
Description: Samples run under non-ambient conditions were mounted on a silicon wafer with a heat-conducting compound. The sample was then heated from ambient to the appropriate temperature at 20° C./min and subsequently held isothermally for 1 minute before data collection was initiated.
Variable Temperature XRPD (VT-XRPD) experiments were therefore conducted to examine the thermal behavior of Sample 2 observed by DSC (see FIG. 9B). […] (blue) as Form 1 material (FIG. 5D).

SMILES: CCNCCc1ccc(CN(CC)c2cc(OC)ccc2[C@@H]2CCc3cc(O)ccc3C2)cc1.Cl.Cl [Form 1B]
- XRPD after storage at 25° C./97% RH for 1 week (solid form) ([1]; listed as Pattern B): Unchanged post storage at both conditions
- XRPD after storage at 40° C./75% RH for 1 week (solid form) ([1]; listed as Pattern B): Unchanged post storage at both conditions
- GVS total mass change between 0 and 90% RH ([2]; listed as Pattern B): Total change in mass of 1.4% wt. between 0 and 90% RH,
- XRPD post GVS (uptake 0-90% RH) ([2]; 25° C., listed as Pattern B): no hysteresis. XRPD post-GVS is consistent with Pattern

SMILES: CCNCCc1ccc(CN(CC)c2cc(OC)ccc2[C@@H]2CCc3cc(O)ccc3C2)cc1.Cl.Cl [Form 1]
- XRPD after storage at 25° C./97% RH for 1 week (solid form) [1]: converted to Form 3; also recorded: conversion towards a hydrated state Form 3; also recorded: Converts to Form 3 at 25° C./
- XRPD after storage at 40° C./75% RH for 1 week (solid form) [1]: stable; also recorded: Remains as Form 1 at 40° C./
- Form change on exposure to high RH (>90%) [1]: irreversibly converted to the hydrate Form 3
- Stability of the form (heat/humidity), in words ([1]; summary of characterizations of Samples 1 and 2): stable
- GVS: reversibility of uptake and loss ([2]; 0-90% RH): exhibits reversible uptake and loss,
- Hygroscopicity (GVS), in words ([2]; 0-90% RH): lower hygroscopicity; also recorded: relatively non-hygroscopic; also recorded: low hygroscopicity; also recorded: Sample is slightly hygroscopic, but
- GVS total mass change between 0 and 90% RH [2]: Total mass change of 1.7% wt.
- Form change at high RH (>90%) in GVS experiments [2]: started converting to the hydrate Form 3
- XRPD post GVS (uptake 0-90% RH) ([2]; 25° C.): unchanged XRPD pattern; also recorded: No changes; also recorded: Form 1

SMILES: CCNCCc1ccc(CN(CC)c2cc(OC)ccc2[C@@H]2CCc3cc(O)ccc3C2)cc1.Cl.Cl [Form 2]
- Form obtained on exposure to >40% RH for 7 days ([1]; >40% RH, 7 days): Form 3
- Hygroscopicity (GVS), in words ([2]; 0-90% RH): hygroscopic

SMILES: CCNCCc1ccc(CN(CC)c2cc(OC)ccc2[C@@H]2CCc3cc(O)ccc3C2)cc1.Cl.Cl [Lyophilization in water]
- XRPD post storage at 25° C./97% RH (10 days) ([3]; 25° C./97% RH): Consistent with Form 3
- XRPD post storage at 40° C./75% RH (10 days) ([3]; 40° C./75% RH): Consistent with Form 3

SMILES: CCNCCc1ccc(CN(CC)c2cc(OC)ccc2[C@@H]2CCc3cc(O)ccc3C2)cc1 [RAD1901]
- Binding selectivity for the estrogen receptor (ER), in words [4]: good selectivity

SMILES: CCNCCc1ccc(CN(CC)c2cc(OC)ccc2[C@@H]2CCc3cc(O)ccc3C2)cc1.Cl.Cl [Sample 1]
- XRPD after storage at 25° C./97% RH for 1 week (solid form) [1]: Form 3
- XRPD after storage at 40° C./75% RH for 1 week (solid form) [1]: Form 1
- Form change on exposure to high RH (>90%) [1]: converted to the hydrate Form 3
- GVS: reversibility of uptake and loss ([2]; 0-90% RH): (reversible)
- GVS uptake 0-90% RH ([2]; 0-90% RH, 25° C.): 1.8% wt.
- GVS mass uptake when held at 95% RH for ~12 hours (HighRH method) ([2]; 95% RH, ~12 hours): 5-6 % wt.
- Form change at high RH (>90%) in GVS experiments [2]: irreversibly converted to a hydrate (Form 3)
- XRPD post GVS (uptake 0-90% RH) ([2]; 25° C.): Form 1
- XRPD post-GVS (HighRH_DoubleCycle_2 method) ([2]; double cycle, 1600 mins at 95% RH, 800 mins at 0% RH): Form 3
- XRPD post-GVS (HighRH method) ([2]; held at 90 then 95% RH for ~12 hours): mixture of states or incomplete conversion
- XRPD post-GVS (HighRH_Desorp_3 method) ([2]; single cycle to 95% RH, desorption to 0% RH, adsorption to 40% RH): mixture of Form 1 and Form 3
- VH-XRPD: form change over 24 hr at ~95% RH ([5]; ~95% RH, 24 hr): unable to show a direct conversion; also recorded: Form 3 over
- Solubility in alcohols, esters, and hydrocarbon solvents, in words ([6]; alcohols, esters, hydrocarbon solvents): low solubility
- Solubility in water, in words ([6]; water): highly soluble
- Solubility in water and t-butanol/water (1:1), in words ([6]; water, t-butanol/water (1:1)): high solubility

SMILES: CCNCCc1ccc(CN(CC)c2cc(OC)ccc2[C@@H]2CCc3cc(O)ccc3C2)cc1.Cl.Cl [Sample 2]
- XRPD after storage at 25° C./97% RH for 1 week (solid form) [1]: Form 3
- XRPD after storage at 40° C./75% RH for 1 week (solid form) [1]: Form 3
- Hygroscopicity (GVS), in words ([2]; 0-90% RH): hygroscopic
- XRPD post GVS (uptake 0-90% RH) ([2]; 25° C.): mixture of Form 2 and Form 3
- VH-XRPD: form at 0% RH ([5]; 0% RH): 5E). Form 2 at 0%
- VH-XRPD: form change at >90% RH ([5]; >90% RH (92-93% RH)): conversion toward the hydrated state; also recorded: Conversion to Form 3
- VT-XRPD: form after melt and recrystallization above 175° C. ([7]; heated above 175° C.): converted to Form 1; also recorded: recrystallized as Form 1
- VT-XRPD: form obtained on heating to 100° C. ([7]; heating to 100° C.): converted to Form 2; also recorded: Anhydrous Form 2
